{"source": "patent US20040072990A1", "about": "“Antimicrobial peptides with reduced hemolysis and methods of their use” (priority 2002, published 2004)", "key": {"human red blood cells": {"test_system": "human red blood cells", "assay": "Erythrocyte lysis (hemolysis)", "type": "cell-based", "experimental": "Pac 521-530 were tested for hemolysis against human red blood cells (RBC). The RBCs with EDTA were rinsed 3 times with PBS (800 g, 10 min) and resuspended in PBS. The RBCs were diluted into 10% with phosphate-buffered saline and placed 50 μl into each eppendorf. The peptides that dissolved in PBS were then added to 50 μl of 10% solution of RBCs and incubated for an hour at 37° C. (final RBC concentration, 5% v/v). The samples were centrifuged at 800 g for 10 min […]. Various concentrations of peptides were incubated with pretreated RBC and the percentage of hemolysis determined. […]"}, "P. aeruginosa": {"test_system": "P. aeruginosa", "assay": "MIC test (NCCLS broth microdilution)", "type": "cell-based, Pseudomonas aeruginosa", "experimental": "(§1) Generally, the in vitro antimicrobial activities of antimicrobial agents were tested using standard NCCLS bacterial inhibition assays, or minimum inhibition concentration (MIC) tests. The MIC value is the lowest concentration of peptide at which the visible growth of test organisms is inhibited and reduced.\n(§2) Briefly, overnight cultures of the test organisms were diluted to produce an inoculum containing approximately 10^5 colonies in Meuller-Hinton broth (MHB). From the peptide stock solution, serial two-dilutions of the peptides in 50 μl volume was prepared in a 96-well microtiter plate, and all wells were subsequently inoculated with the diluted culture of the test organisms. After 18 hours of incubation at 37° C., the results were assayed for turbidity (cell growth). MIC values were performed three times on different occasions (FIG. 2), and the median values are shown."}, "S. epidermidis": {"test_system": "S. epidermidis", "assay": "MIC test (NCCLS broth microdilution)", "type": "cell-based, Staphylococcus epidermidis", "experimental": "as §1, §2"}, "B. substiis": {"test_system": "B. substiis", "assay": "MIC test (NCCLS broth microdilution)", "type": "cell-based, Bacillus. substilis", "experimental": "as §1, §2"}, "E. coli": {"test_system": "E. coli", "assay": "MIC test (NCCLS broth microdilution)", "type": "cell-based", "experimental": "(§3) The MIC value is the lowest concentration of peptide at which the visible growth of test organisms is inhibited and reduced.\nas §2"}, "B. cereus": {"test_system": "B. cereus", "assay": "MIC test (NCCLS broth microdilution)", "type": "cell-based, Bacillus cereus", "experimental": "as §1, §2"}, "B. pumilus": {"test_system": "B. pumilus", "assay": "MIC test (NCCLS broth microdilution)", "type": "cell-based, Bacillus pumilus", "experimental": "as §1, §2"}, "S. aureus": {"test_system": "S. aureus", "assay": "MIC test (NCCLS broth microdilution)", "type": "cell-based, Staphylococcus aureus", "experimental": "as §3, §2"}}, "note": "Residues, ends and D or L forms follow the SMILES beside them."}
{"smiles": "CC[C@H](C)[C@H](NC(=O)[C@H](Cc1c[nH]c2ccccc12)NC(=O)[C@H](CCCNC(=N)N)NC(=O)[C@H](CCCNC(=N)N)NC(=O)[C@H](Cc1c[nH]c2ccccc12)NC(=O)[C@@H](N)CCCCN)C(N)=O", "note": "[Pac 301 L, K W R R W I] (H-KWRRWI-NH2; N-terminus and C-terminus assumed)", "values": [{"measurement": "% lysis at 5 μg/ml", "setting": "human red blood cells", "result": 0.85, "unit": "%"}, {"measurement": "% lysis at 50 μg/ml", "setting": "human red blood cells", "result": 6.8, "unit": "%"}, {"measurement": "% lysis at 500 μg/ml", "setting": "human red blood cells", "result": 14, "unit": "%"}]}
{"smiles": "CC[C@H](C)[C@H](NC(=O)[C@H](Cc1c[nH]c2ccccc12)NC(=O)[C@H](CCCCN)NC(=O)[C@@H](NC(=O)[C@H](Cc1c[nH]c2ccccc12)NC(=O)[C@@H](N)CCCCN)[C@@H](C)CC)C(N)=O", "note": "[Pac-305 L, K W I K W I] (H-KWIKWI-NH2; N-terminus and C-terminus assumed)", "values": [{"measurement": "% lysis at 5 μg/ml", "setting": "human red blood cells", "result": 0.74, "unit": "%"}, {"measurement": "% lysis at 50 μg/ml", "setting": "human red blood cells", "result": 7.2, "unit": "%"}, {"measurement": "% lysis at 500 μg/ml", "setting": "human red blood cells", "result": 15, "unit": "%"}]}
{"smiles": "CC[C@H](C)[C@H](NC(=O)[C@H](Cc1c[nH]c2ccccc12)NC(=O)[C@H](CCCNC(=N)N)NC(=O)[C@@H](NC(=O)[C@H](Cc1c[nH]c2ccccc12)NC(=O)[C@H](CCCNC(=N)N)NC(=O)[C@H](CCCNC(=N)N)NC(=O)[C@H](Cc1c[nH]c2ccccc12)NC(=O)[C@@H](N)CCCCN)C(C)C)C(N)=O", "note": "[Pac-525 L, K W R R W V R W I] (H-KWRRWVRWI-NH2; N-terminus and C-terminus assumed)", "values": [{"measurement": "% lysis at 5 μg/ml", "setting": "human red blood cells", "result": 0.81, "unit": "%"}, {"measurement": "% lysis at 50 μg/ml", "setting": "human red blood cells", "result": 7.2, "unit": "%"}, {"measurement": "% lysis at 500 μg/ml", "setting": "human red blood cells", "result": 14, "unit": "%"}, {"measurement": "hemolysis against RBC compared with other antimicrobial peptides", "setting": "human red blood cells; human RBC, in words", "result": "substantially less hemolytic"}]}
{"smiles": "CC[C@H](C)[C@H](NC(=O)[C@H](Cc1ccccc1)NC(=O)[C@H](CCCNC(=N)N)NC(=O)[C@@H](NC(=O)[C@H](Cc1ccccc1)NC(=O)[C@H](CCCNC(=N)N)NC(=O)[C@H](CCCNC(=N)N)NC(=O)[C@H](Cc1ccccc1)NC(=O)[C@@H](N)CCCCN)C(C)C)C(N)=O", "note": "[Pac-527 L, K F R R F V R F I] (H-KFRRFVRFI-NH2; N-terminus assumed)", "values": [{"measurement": "MIC", "setting": "P. aeruginosa; 1X Phosphate Buffer", "result": 8, "unit": "µg/mL"}, {"measurement": "MIC", "setting": "P. aeruginosa; Non Phosphate Buffer", "result": 4, "unit": "µg/mL"}, {"measurement": "MIC", "setting": "S. epidermidis; 1X Phosphate Buffer", "result": 4, "unit": "µg/mL"}, {"measurement": "MIC", "setting": "S. epidermidis; Non Phosphate Buffer", "result": 2, "unit": "µg/mL"}, {"measurement": "MIC", "setting": "B. substiis; 1X Phosphate Buffer", "result": 2, "unit": "µg/mL"}, {"measurement": "MIC", "setting": "B. substiis; Non Phosphate Buffer", "result": 4, "unit": "µg/mL"}, {"measurement": "MIC", "setting": "E. coli; 1X Phosphate Buffer", "result": 8, "unit": "µg/mL"}, {"measurement": "MIC", "setting": "E. coli; Non Phosphate Buffer", "result": 4, "unit": "µg/mL"}, {"measurement": "MIC", "setting": "B. cereus; 1X Phosphate Buffer", "result": 4, "unit": "µg/mL"}, {"measurement": "MIC", "setting": "B. cereus; Non Phosphate Buffer", "result": 4, "unit": "µg/mL"}, {"measurement": "MIC", "setting": "B. pumilus; 1X Phosphate Buffer", "result": 4, "unit": "µg/mL"}, {"measurement": "MIC", "setting": "B. pumilus; Non Phosphate Buffer", "result": 2, "unit": "µg/mL"}, {"measurement": "MIC", "setting": "S. aureus; 1X Phosphate Buffer", "result": 4, "unit": "µg/mL"}, {"measurement": "MIC", "setting": "S. aureus; Non Phosphate Buffer", "result": 4, "unit": "µg/mL"}]}
